From patent US11701434B2, “Tertiary amino lipidated cationic peptides for nucleic acid delivery” (Nutcracker Therapeutics, Inc., priority 2018, dated 2023)

Experiments:
[1] = Dynamic light scattering (DLS) of Fluc mRNA/peptoid formulations: particle size and polydispersity; assay type: physicochemical; settings: 5:1 mass ratio peptoid:cargo; for Size (volume average particle size/diameter): Fluc mRNA/peptoid complex; for Size PDI (size polydispersity index): Fluc mRNA/peptoid formulation
Procedure: (§1) In standard formulations, the tertiary amino lipidated and/or PEGylated cationic peptide compound is dissolved in anhydrous ethanol at a concentration of 0.5 mg/mL (for in vitro experiments) or 5 mg/mL (for in vivo experiments). The resulting solutions are stable at room temperature, but should be stored at −20° C. The nucleic acid cargo is dissolved in DNAse or RNAse-free water at a final concentration of 0.2 mg/mL (for in vitro experiments) or 1 mg/mL (for in vivo experiments). These solutions should be stored at −20° C. or at −78° C. for longer time periods. To prepare nanoparticle formulations, the tertiary amino lipidated and/or PEGylated cationic peptide compound is mixed by pipetting with nucleic acid at a mass ratio between approximately 1:1 (peptide compound:cargo) and 20:1. Prior to formulation, tertiary amino lipidated and/or PEGylated cationic peptide compounds and cargo (such as nucleic acid) are diluted in ethanol and acidic buffer (PBS adjusted to pH 5.5 with 0.1 M HCl) respectively to a volume ratio of 1:3 and to target a final cargo concentration of approximately 0.05 mg/mL to 0.2 mg/mL. The exemplary amino lipidated cationic peptoids 1-36 described in Example 2 were combined with firefly luciferase (Flue) mRNA to form nanoparticle compositions to be evaluated for therapeutic and/or prophylactic purposes in vitro or in vivo. The formulations were prepared according to the protocol of Example 3 and mixed by simple pipetting. The mRNA/peptoid formulation at a 5:1 mass ratio of peptoid:cargo were evaluated by dynamic light scattering (DLS) in order to determine the volume average particle size/diameter (nm) of the mRNA/peptoid complex and the size polydispersity index (PDI) within the formulation. The percentage of mRNA encapsulation for each formulation of the exemplary compounds were determined by fluorescence of the Qubit RNA HS (Invitrogen) dye before and after lysis of particles by Triton X-100.

[2] = mRNA encapsulation by Qubit RNA HS dye fluorescence before and after Triton X-100 lysis; assay type: physicochemical; settings: Fluc mRNA/peptoid formulation, 5:1 mass ratio peptoid:cargo
Procedure: as §1

| SMILES | Size (volume average particle size/diameter) [1] [nm] | Size PDI (size polydispersity index) [1] | % Encapsulation (percentage of mRNA encapsulation) [2] [%] |
| --- | --- | --- | --- |
| CCCCCCCCCCN(CC(=O)N(CCN)CC(=O)N(CCc1ccccc1)CC(=O)N(CCc1ccccc1)CC(=O)N(CCCCCCCCCC)CC(=O)N(CCN)CC(=O)N(CCc1ccccc1)CC(=O)N(CCc1ccccc1)CC(N)=O)C(=O)CN(CCc1ccccc1)C(=O)CN(CCc1ccccc1)C(=O)CNCCN [Compound 17] | 472.8 | 0.37 | 90.3 |
| CCCCCCCCCCN(CC(N)=O)C(=O)CN(CCCCCCCCCC)C(=O)CN(CCN)C(=O)CN(CCN)C(=O)CNCCN [Compound 14] | 554 | 0.233 | 77.3 |
| CCCCCCCCCCCCN(CC(N)=O)C(=O)CN(CCCCCCCCCCCC)C(=O)CN(CCc1ccccc1)C(=O)CN(CCc1ccccc1)C(=O)CN(CCN)C(=O)CN(CCc1ccccc1)C(=O)CN(CCc1ccccc1)C(=O)CN(CCN)C(=O)CN(CCc1ccccc1)C(=O)CN(CCc1ccccc1)C(=O)CNCCN [Compound 3] | 255.3 | 0.247 | 95.9 |
| CCCCCCCCCCNCC(=O)N(CCN)CC(=O)N(CCc1ccccc1)CC(=O)N(CCc1ccccc1)CC(=O)N(CCN)CC(=O)N(CCc1ccccc1)CC(=O)N(CCc1ccccc1)CC(=O)N(CCN)CC(=O)N(CCc1ccccc1)CC(=O)N(CCc1ccccc1)CC(=O)N(CCCCCCCCCC)CC(N)=O [Compound 18] | 593 | 0.762 | 88.5 |
| CCCCCCCCCCN(CC(N)=O)C(=O)CN(CCc1ccccc1)C(=O)CN(CCc1ccccc1)C(=O)CN(CCN)C(=O)CN(CCc1ccccc1)C(=O)CN(CCc1ccccc1)C(=O)CN(CCN)C(=O)CN(CCc1ccccc1)C(=O)CN(CCc1ccccc1)C(=O)CNCCN [Compound 6] | 448.6 | 0.348 | 92.4 |

Next, values leading:

| Size (volume average particle size/diameter) [1] [nm] | Size PDI (size polydispersity index) [1] | % Encapsulation (percentage of mRNA encapsulation) [2] [%] | SMILES |
| --- | --- | --- | --- |
| 748.2 | 0.538 | 65.4 | CCCCCCCCCCN(CC(N)=O)C(=O)CN(CCCCCCCCCC)C(=O)CN(CCCCCCCCCC)C(=O)CN(CCCCCCCCCC)C(=O)CN(CCCCCCCCCC)C(=O)CN(CCCCCCCCCC)C(=O)CN(CCc1ccccc1)C(=O)CN(CCc1ccccc1)C(=O)CN(CCN)C(=O)CN(CCc1ccccc1)C(=O)CN(CCc1ccccc1)C(=O)CN(CCN)C(=O)CN(CCc1ccccc1)C(=O)CN(CCc1ccccc1)C(=O)CNCCN [Compound 22] |
| 374.4 | 0.127 | 71.5 | CCCCCCCCCCN(CC(N)=O)C(=O)CN(CCCCCCCCCC)C(=O)CN(CCc1ccccc1)C(=O)CN(CCc1ccccc1)C(=O)CN(CC1CCCN1)C(=O)CN(CCc1ccccc1)C(=O)CN(CCc1ccccc1)C(=O)CN(CC1CCCN1)C(=O)CN(CCc1ccccc1)C(=O)CN(CCc1ccccc1)C(=O)CNCC1CCCN1 (stereo not drawn) [Compound 36] |
| 326.7 | 0.191 | 99.0 | CCCCCCCCCCCCN(CC(N)=O)C(=O)CN(CCCCCCCCCCCC)C(=O)CN(CCc1ccc(OC)cc1)C(=O)CN(CCc1ccc(OC)cc1)C(=O)CN(CCN)C(=O)CN(CCc1ccc(OC)cc1)C(=O)CN(CCc1ccc(OC)cc1)C(=O)CN(CCN)C(=O)CN(CCc1ccc(OC)cc1)C(=O)CN(CCc1ccc(OC)cc1)C(=O)CNCCN [Compound 4] |
